From US8518968B2, “Hydrazone and diacyl hydrazine compounds and methods of use” (The United States of America, as represented by the …, priority 2009, dated 2013) come the findings set out here.

pIC50: −log10 of the molar value. Counter-ions that a name gives are not always drawn.

The test system of data set [1] is JEKO-1 cells. Nature of the data set: cells. To be noted: Homo sapiens, JeKo-1, 48 h.
In data set [2] the test system is JEKO-1 cells stably transfected with shRNAs to luciferase or NOXA. The data set is described as follows: Effect of NOXA shRNA on cytotoxicity in JEKO-1 cells (MTT). It is filed as cell-based. To be noted: JEKO-1 shLuc vs shNoxa, 24 hours. The procedure: The effect of NOXA on cytotoxicity of CBU-028, EERI, or bortezomib is determined. FIG. 4 presents graphs comparing CBU-028, EERI, and bortezomib with respect to percent cell viability as a function of concentration, measured using JEKO-1 cells stably transfected with shRNAs to luciferase (shLuc, control, ▪) or NOXA (shNoxa, ◯, sequence: [NT]) after treatment with the compound for 24 hrs, with viability determined with MTT as described above and normalized to the untreated control.

Where [3] appears, read: JEKO-1 cells, incubated 2 days, MTT, four parameter logistic fit.

The pIC50 is the IC50 on a negative log10 scale, so that one unit is a factor of ten. Compound `CC1(C)C(N(O)C(=O)Nc2ccc(C(F)(F)F)cc2)N(c2ccc(C(F)(F)F)cc2)C(=O)N1CC(=O)NN` (centres unmarked) [CBU-007, 1-(1-(2-hydrazinyl-2-oxoethyl)-5,5-dimethyl-2-oxo-3-(4-(tri-fluoromethyl)phenyl)imi-dazolidin-4-yl)-1-hydroxy-3-(4-(trifluoromethyl)phenyl)urea] showed a pIC50 in data set [1] of 4.52.
In the case of `CC1(C)C(N(O)C(=O)Nc2ccc(C(F)(F)F)cc2)N(c2ccc(C(F)(F)F)cc2)C(=O)N1CC(=O)N/N=C/C=C/c1ccc([N+](=O)[O-])o1` (centres unmarked) [CBU-008], the pIC50 in data set [1] (setting [3]) was 5.60.
The same measure, in the same setting: next, `CC1(C)C(N(O)C(=O)Nc2ccc(Cl)cc2)N(c2ccc(C(F)(F)F)cc2)C(=O)N1CC(=O)N/N=C/C=C/c1ccc([N+](=O)[O-])o1` (centres unmarked) [CBU-013]: 5.52.
The same measure, in the same setting: next, `CC1(C)C(N(O)C(=O)Nc2ccc(C(F)(F)F)cc2)N(c2ccc(Cl)cc2)C(=O)N1CC(=O)N/N=C/C=C/c1ccc([N+](=O)[O-])o1` (centres unmarked) [CBU-014]: 5.52.
On the same count and under the same terms, next, `O=C(N/N=C/C=C/c1ccc([N+](=O)[O-])o1)c1ccccc1` [CBU-015, (E)-N′-((E)-3-(5-nitrofuran-2-yl)allylidene)benzohydrazide]: 5.10; `O=C(N/N=C/C=C/c1ccc([N+](=O)[O-])o1)c1cccnc1` [CBU-016, (E)-N′-((E)-3-(5-nitrofuran-2-yl)allylidene)nicotinonhydrazide]: 5.15; `CCNC(=S)N/N=C/C=C/c1ccc([N+](=O)[O-])o1` [CBU-017, (E)-N-ethyl-2-((E)-3-(5-nitrofuran-2-yl)allylidene)hydrazine-carbothioamide]: 4.82.
The compound `CC(C)(C)OC(=O)N/N=C/C=C/c1ccc([N+](=O)[O-])o1` [CBU-018, (E)-tert-butyl 2-((E)-3-(5-nitrofuran-2-yl)allylidene)hydrazine-carboxylate] had a pIC50 in data set [1] (setting [3]) of 4.74.
In turn, `C[N+](C)(C)CC(=O)N/N=C/C=C/c1ccc([N+](=O)[O-])o1` [CBU-019] had a pIC50 in data set [1] (setting [3]) of 5.46.
Still for that read-out and setting: next, `N=C(N)N/N=C/C=C/c1ccc([N+](=O)[O-])o1` [CBU-020, (E)-2-((E)-3-(5-nitrofuran-2-yl)allylidene)hydrazine-carboximidamide hydrochloride]: 5.40; `O=C(N/N=C/C=C/c1ccc([N+](=O)[O-])o1)c1cccc(O)c1` [CBU-021, (E)-3-hydroxy-N′-((E)-3-(5-nitrofuran-2-yl)allylidene)benzohydrazide]: 5.10.
Same read-out and setting: next, `O=C(CNC(=O)Nc1ccc(Cl)cc1)N/N=C/C=C/c1ccc([N+](=O)[O-])o1` [CBU-022, 1-(4-chlorophenyl)-3-(2-((E)-2-((E)-3-(5-nitrofuran-2-yl)allylidene)hydrazinyl)-2-oxoethyl)urea]: 5.22.
Same read-out and setting: the result for `CC1(C)C(N(O)C(=O)Nc2ccc(Cl)cc2)N(c2ccc(Cl)cc2)C(=O)N1CC(=O)N/N=C/C=C/c1ccco1` (centres unmarked) [CBU-023] reads 4.82; that for `CC1(C)C(N(O)C(=O)Nc2ccc(Cl)cc2)N(c2ccc(Cl)cc2)C(=O)N1CC(=O)N/N=C/c1ccc([N+](=O)[O-])o1` (centres unmarked) [CBU-024], 5.15; that for `O=C(N/N=C/C=C/c1ccc([N+](=O)[O-])o1)c1ccccc1O` [CBU-025, (E)-2-hydroxy-N′-((E)-3-(5-nitrofuran-2-yl)allylidene)benzohydrazide], 5.19.
In data set [1] (setting [3]), `O=C(N/N=C/C=C/c1ccc([N+](=O)[O-])o1)c1ccc(O)cc1` [CBU-027, (E)-4-hydroxy-N′-((E)-3-(5-nitrofuran-2-yl)allylidene)benzohydrazide] showed a pIC50 of 5.12.
On the same count and under the same terms, the result for `O=C(N/N=C/C=C/c1ccc([N+](=O)[O-])o1)c1ccncc1` [CBU-033, (E)-N′-((E)-3-(5-nitrofuran-2-yl)allylidene)isonicotino-hydrazide] reads 5.22.
The same measure, in the same setting: the result for `O=C(N/N=C/C=C/c1ccc([N+](=O)[O-])o1)c1cccs1` [CBU-034, (E)-N′-((E)-3-(5-nitrofuran-2-yl)allylidene)thiophene-2-carbohydrazide] reads 4.70; that for `O=C(N/N=C/C=C/c1ccc([N+](=O)[O-])o1)c1nc(O)c2ccccc2c1O` [CBU-036, (E)-1,4-dihydroxy-N′-((E)-3-(5-nitrofuran-2-yl)allylidene)isoquinoline-3-carbohydrazide], 5.05.
For the compound `Cc1cccc(C(=O)N/N=C/C=C/c2ccc([N+](=O)[O-])o2)c1O` [CBU-038, (E)-2-hydroxy-3-methyl-N′-((E)-3-(5-nitrofuran-2-yl)allylidene)benzohydrazide], the pIC50 in data set [1] (setting [3]) is 5.05.
Same read-out and setting: next, `O=C(N/N=C/C=C/c1ccc([N+](=O)[O-])o1)c1cnc2cc(C(F)(F)F)ccc2c1O` [CBU-039, (E)-4-hydroxy-N′-((E)-3-(5-nitrofuran-2-yl)allylidene)-7-(trifluoromethyl)quinoline-3-carbohydrazide]: 4.82.
`O=C(N/N=C/C=C/c1ccc([N+](=O)[O-])o1)c1cnc2c(C(F)(F)F)cccc2c1O` [CBU-040, (E)-4-hydroxy-N′((E)-3-(5-nitrofuran-2-yl)allylidene)-8-(trifluoromethyl)quinoline-3-carbohydrazide] had a pIC50 in data set [1] (setting [3]) of 5.00.
Regarding `O=C(N/N=C/C=C/c1ccc([N+](=O)[O-])o1)c1cc(Br)ccc1O` [CBU-041, (E)-5-bromo-2-hydroxy-N′-((E)-3-(5-nitrofuran-2-yl)allylidene)benzohydrazide], the pIC50 in data set [1] (setting [3]) is 5.00.
Still for that read-out and setting: next, `O=C(N/N=C/C=C/c1ccc([N+](=O)[O-])o1)c1ccc(O)cc1O` [CBU-042, (E)-2,4-dihydroxy-N′-((E)-3-(5-nitrofuran-2-yl)allylidene)benzohydrazide]: 4.40; `COc1ccc(C(=O)N/N=C/C=C/c2ccc([N+](=O)[O-])o2)c(O)c1` [CBU-043, (E)-2-hydroxy-4-methoxy-N′-((E)-3-(5-nitrofuran-2-yl)allylidene)benzohydrazide]: 4.52; `Cc1ccc(O)c(C(=O)N/N=C/C=C/c2ccc([N+](=O)[O-])o2)c1` [CBU-045, (E)-2-hydroxy-5-methyl-N′-((E)-3-(5-nitrofuran-2-yl)allylidene)benzohydrazide]: 5.22.
The same measure, in the same setting: the result for `COc1ccc(O)c(C(=O)N/N=C/C=C/c2ccc([N+](=O)[O-])o2)c1` [CBU-046, (E)-2-hydroxy-5-methoxy-N′-((E)-3-(5-nitrofuran-2-yl)allylidene)benzohydrazide] reads 5.00.
Turning to `O=C(N/N=C/C=C/c1ccc([N+](=O)[O-])o1)c1ccc(C(=O)N/N=C/C=C/c2ccc([N+](=O)[O-])o2)c(O)c1O` [CBU-049, (N′1E,N′4E)-2,3-dihydroxy-N′1,N′4-bis((E)-3-(5-nitrofuran-2-yl)allylidene)terephthalo hydrazide], the pIC50 in data set [1] was 5.82.
Compound `O=C(N/N=C/C=C/c1ccccc1)c1cc2ccccc2cc1O` [CBU-051, (E)-3-hydroxy-N′-((E)-3-phenylallylidene)-2-naphthohydrazide] showed a pIC50 in data set [1] (setting [3]) of 5.00.
`CN(C)c1ccc(/C=C/C=N/NC(=O)c2cc3ccccc3cc2O)cc1` [CBU-054, (E)-N′-((E)-3-(4-(dimethylamino)phenyl)allylidene)-3-hydroxy-2-naphthohydrazide] showed a pIC50 in data set [1] (setting [3]) of 4.82.
On the same count and under the same terms, next, `O=C(N/N=C/C=C/c1ccccc1[N+](=O)[O-])c1cc2ccccc2cc1O` [CBU-055, (E)-3-hydroxy-N′-((E)-3-(2-nitrophenyl)allylidene)-2-naphthohydrazide]: 5.22; `O=C(N/N=C/C=C/c1ccc([N+](=O)[O-])cc1)c1cc2ccccc2cc1O` [CBU-061, (E)-3-hydroxy-N′-((E)-3-(4-nitrophenyl)allylidene)-2-naphthohydrazide]: 5.30.
Same read-out and setting: next, `O=C(/C=C/c1ccc([N+](=O)[O-])o1)NNC(=O)c1cc2ccccc2cc1O` [CBU-062, (E)-3-hydroxy-N′-(3-(5-nitrofuran-2-yl)acryloyl)-2-naphthohydrazide]: 5.60; `CC1(C)C(N(O)C(=S)Nc2ccc(Cl)cc2)N(c2ccc(Cl)cc2)C(=S)N1CC(=O)N/N=C/C=C/c1ccc([N+](=O)[O-])o1` (centres unmarked) [CBU-073]: 5.52.
For `CC(C)C[C@H](NC(=O)[C@H](Cc1ccccc1)NC(=O)c1cnccn1)B(O)O` [bortezomib], the “requirement of NOXA for cytotoxicity” value in data set [2] was “Noxa is equally required”.
